In publication PMC8348110, “A Novel Peptide Derived from the Transmembrane Domain of Romo1 Is a Promising Candidate for Sepsis Treatment and Multidrug-Resistant Bacteria” (International Journal of Molecular Sciences, 2021):
Values after ≈ are worked out from the molar mass of the structure shown. Residues, ends and D or L forms follow the SMILES beside them.

Assays:
[1] = tested on: Pseudomonas aeruginosa ATCC 27853; assay type: cell-based
Procedure, shortened: (§1)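 Mid-log bacteria at 5 × 10^5 CFU/mL in 10 mM sodium phosphate (pH 7.4) with 1% TS broth, exposed 1 h to two-fold peptide dilutions from 64 μg/mL. Samples then plated on TS agar overnight at 37 °C; MBC taken as lowest concentration yielding no colonies.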

[2] = tested on: Staphylococcus aureus ATCC 29213; assay type: cell-based
Procedure, shortened: as §1

[3] = tested on: Streptococcus pneumoniae NCCP 14585; assay type: cell-based; details: NCCP 14585, 1 h
Procedure, shortened: as §1

[4] = tested on: Vancomycin-resistant E. faecium NCCP 11522; assay type: cell-based, Enterococcus faecium; details: Vancomycin-resistant NCCP 11522, 1 h
Method: The minimum bactericidal concentration (MBC) was determined as previously described with minor modifications. Briefly, bacteria were cultured in the mid-log phase and diluted to 5 × 10^5 colony-forming unit (CFU)/mL in 10 mM sodium phosphate buffer (pH 7.4) with a 1% volume of TS broth. They were incubated for 1 h with various peptides which were two-fold diluted serially from 64 μg/mL to 0 μg/mL concentrations in a 96-well plate. The samples were inoculated TS agar plate and incubated overnight at 37 °C. The value of MBC was determined at the lowest concentrations at which no colonies were identified.
We used the CFU counting method to measure antibacterial activity, with all bacteria cultured to the mid-log phase in an appropriate broth medium. Bacterial CFUs were counted after overnight culture at 37 °C on TS or LB agar plates. The MBC value and antibacterial activity in blood components were determined as previously described. Mouse and human whole blood were collected and diluted with PBS (pH 7.4) to measure the ex vivo antibacterial activity of AMPR-22. For that test, AMPR-22 (10 μg) was added to each whole blood solution and incubated at 37 °C with shaking at 200 rpm. At each time point, it was incubated with bacteria (1 × 10^3 CFU) for 30 min. Each sample was inoculated on an LB agar plate, and CFU counting was performed. […]

[5] = tested on: human embryotic kidney (HEK) 293 cells; assay type: cell-based
Method: Mammalian cell viability was measured using a 3-(4,5-dimethylthiazol-2-yl)-2,5-diphenyltetrazolium bromide (MTT) assay in HeLa and HEK 293 cells. Cells were cultured on 96-well plates and incubated separately with AMPR-11, AMPR-21, AMPR-22, magainin 2, or daptomycin. After incubation for an hour, the cells were incubated with MTT solution (2 mg/mL of MTT in PBS) for an hour, and the media were removed, and dimethyl sulfoxide was added to allow the MTT formazans to solubilize. The optical density was measured using a SpectraMax Plus 384 microplate reader (Molecular Devices, San Jose, CA, USA) at 550 nm.

human erythrocytes = experiment: Hemolysis assay; assay type: cell-based; details: 2% erythrocytes in PBS, 1 h 37 °C, absorbance 550 nm; up to / at 256 µg/mL
Method: (§2) For the hemolytic assay, mouse and human whole blood was diluted with PBS (pH 7.4) and centrifuged for 10 min at 500× g. After removing the supernatant and rinsing the pellet three times with PBS, we resuspended the erythrocytes in PBS at 2% volume. The blood solution was added to the solution of peptides with two-fold serial dilution on a 96-well plate. After incubation for an hour at 37 °C, the plate was centrifuged at 2500× g for 10 min, and the absorbance of the supernatant was measured at 550 nm. The PBS-treated sample was the negative control, and the 0.1% Triton X-100–treated sample was the positive control. To measure white blood cell toxicity, mouse and human PBMCs were freshly isolated as previously described, and 70% ethanol (positive control) or AMPR-22 was administered using two-fold diluted concentrations (0 to 256 μg/mL) for 30 min. To measure cell death, a LIVE/DEAD® fixable green dead cell stain kit (Thermo Fisher Scientific, Waltham, MS, USA) was used following the manufacturer′s instructions, and flow cytometry was performed using a FACS Canto II (BD Biosciences, CA, USA). The toxicity of AMPR-22 was compared with negative (PBS-treated) and positive controls, and the data were analyzed using FlowJo software (Tree Star, OR, USA).

mouse erythrocytes = experiment: Hemolysis assay; assay type: cell-based; details: 2% erythrocytes in PBS, 1 h 37 °C, absorbance 550 nm; concentrations up to 256 µg/mL
Method: as §2

human PBMCs = experiment: White blood cell toxicity assay (LIVE/DEAD stain, flow cytometry); assay type: cell-based; details: freshly isolated PBMCs, 0 to 256 μg/mL for 30 min
Method: as §2

mouse PBMCs = experiment: as above; assay type: cell-based; details: freshly isolated PBMCs, 0 to 256 μg/mL for 30 min
Method: as §2

BALB/c mice = experiment: In vivo toxicity, single intravenous dose; parameters: species or system mouse; details: 100 mg/kg single intravenous dose, tracked for 15 days, compared with PBS-treated mice
Method: We compared the toxicity of AMPR-22 in mammalian cells with that of AMPR-11 and AMPR-21. […] To investigate the toxicity of AMPR-22 to white blood cells, we isolated fresh peripheral blood mononuclear cells (PBMCs) from humans and mice. […] To check for in vivo toxicity before administering AMPR-22 to mice in a murine model of sepsis, we intravenously injected 100 mg/kg single dose of AMPR-22 (10-fold higher than the working dose) into BALB/c mice and tracked them for 15 days.
Figure 3 The cytotoxicity of AMPR-22. (A) The cell toxicity of the AMPR-11 analog peptides was measured using the MTT assay in HeLa and HEK293 cells. Daptomycin and magainin 2 were also tested. (B) A hemolysis assay was performed in mouse and human blood. The percentage of hemolyzed erythrocytes was measured using a spectrophotometer. Peptides were serially diluted and incubated with cells for an hour. (C) The toxicity of leukocytes was measured using a flow cytometric assay with LIVE/DEAD fixable dead cell™ stain dye and freshly isolated mouse and human PBMCs. […] Data represent the means ± SD of more than three independent experiments.

CC[C@H](C)[C@H](NC(=O)CNC(=O)CNC(=O)[C@@H](NC(=O)[C@H](C)NC(=O)[C@H](CCSC)NC(=O)[C@H](Cc1ccccc1)NC(=O)[C@@H](NC(=O)CNC(=O)[C@H](Cc1ccccc1)NC(=O)[C@H](CCCCN)NC(=O)CNC(=O)CNC(=O)[C@H](CCCCN)NC(=O)[C@H](CCCCN)NC(=O)[C@H](CCSC)NC(=O)[C@H](CCSC)NC(=O)[C@H](CCCCN)NC(=O)[C@@H](N)CCCCN)[C@@H](C)O)[C@@H](C)CC)C(=O)N[C@@H](CCCNC(=N)N)C(=O)O [AMPR-22] (H-KKMMKKGGKFGTFMAIGGIR-OH)
MBC Value, P. aeruginosa ([1]; ATCC 27853, 1 h): 2 µg/mL (≈ 0.915 µM) | MBC Value, Pseudomonas aeruginosa ([1]; Table 2, ATCC 27853, modified MBC): 2 µg/mL (≈ 0.915 µM) | MBC Value, S. aureus ([2]; ATCC 29213, 1 h, pH 7.4): 2 µg/mL (≈ 0.915 µM) | MBC Value, Staphylococcus aureus ([2]; Table 2, ATCC 29213, modified MBC): 2 µg/mL (≈ 0.915 µM) | MBC Value, Streptococcus pneumoniae [3]: 4 µg/mL (≈ 1.83 µM) | MBC Value, Vancomycin-resistant E. faecium [4]: 4 µg/mL (≈ 1.83 µM) | Cytotoxicity, HEK 293 cells [5]: slight cytotoxicity | Hemolytic activity against human erythrocytes (human erythrocytes): negligible hemolytic activity | Hemolytic activity against mouse erythrocytes (mouse erythrocytes): relatively endurable hemolysis properties | Cytotoxic activity against human leukocytes (human PBMCs): negligible cytotoxic activity | Cytotoxic activity against mouse leukocytes (mouse PBMCs): negligible cytotoxic activity | In vivo toxicity (weight loss or death) (BALB/c mice): No significant changes
